In patent publication US7585460B2, “Method for inhibiting the biological acidification of water in contact with materials containing sulfur” (ENI S.p.A., priority 2003, dated 2009):

System: Thiobacilli
Assay: Acidification of rainwater in contact with solid sulfur test samples colonized by Thiobacilli (Example 5)
Format: cell-based, Thiobacillus
Details: 33 g/l NaCl
Method: The following experimental systems were prepared, using test samples of solid sulfur (discoid tables each of about 13 g). • System A: Containing 2 test samples not colonized by microbial cells, placed on the bottom of the container, completely immersed in rainwater (sterilized at a low temperature by micro-filtration); • System A1: Containing two non-colonized test samples, only dampened—by means of a sprayer—with rainwater sterilized by micro-filtration. • System B: Containing 2 colonized test samples (previously immersed in a suspension of 10^8 cells/ml of Thiobacilli and left to dry in the air), placed on the bottom of the container, entirely immersed in micro-filtered rainwater; • System B1: Containing two colonized test samples as per the previous system, only dampened with rainwater sterilized by micro-filtration; • System C: Containing 2 colonized test samples entirely immersed in micro-filtered rainwater, in which 33 g/l of Nacl are dissolved; • System C1: containing 2 colonized test samples only dampened with rainwater sterilized by micro-filtration and containing 33 g/l of NaCl.
The pH variation measurements during 48 days of experimentation are represented in Table 4.

In the case of `[Cl-].[Na+]` [NaCl, Sodium Chloride], the “pH values in the systems” value (System C1: colonized samples only dampened with rainwater, day 0) is reported as 6.0, the “pH values in the systems” value (System C1: colonized samples only dampened with rainwater, day 3) is reported as 5.8 and the “pH values in the systems” value (System C1: colonized samples only dampened with rainwater, day 5) is reported as 5.8. For the same molecule, the “pH values in the systems” value (System C1: colonized samples only dampened with rainwater, day 7) was 5.8, the “pH values in the systems” value (System C1: colonized samples only dampened with rainwater, day 10) was 5.8 and the “pH values in the systems” value (System C1: colonized samples only dampened with rainwater, day 12) was 5.8. The “pH values in the systems” value (System C1: colonized samples only dampened with rainwater, day 15) was 5.8, the “pH values in the systems” value (System C1: colonized samples only dampened with rainwater, day 21) was 5.8 and the “pH values in the systems” value (System C1: colonized samples only dampened with rainwater, day 29) was 5.8. The “pH values in the systems” value (System C1: colonized samples only dampened with rainwater, day 32) was 5.8, the “pH values in the systems” value (System C1: colonized samples only dampened with rainwater, day 35) was 5.8 and the “pH values in the systems” value (System C1: colonized samples only dampened with rainwater, day 38) was 5.8. For the same molecule, the “pH values in the systems” value (System C1: colonized samples only dampened with rainwater, day 42) was 5.8, the “pH values in the systems” value (System C1: colonized samples only dampened with rainwater, day 46) was 5.8 and the “pH values in the systems” value (System C1: colonized samples only dampened with rainwater, day 48) was 5.8. For the same molecule, the “pH values in the systems” value (System C: colonized samples immersed in rainwater, day 0) was 6.0, the “pH values in the systems” value (System C: colonized samples immersed in rainwater, day 3) was 6.0 and the “pH values in the systems” value (System C: colonized samples immersed in rainwater, day 5) was 6.0. The “pH values in the systems” value (System C: colonized samples immersed in rainwater, day 7) was 5.8, the “pH values in the systems” value (System C: colonized samples immersed in rainwater, day 10) was 5.8 and the “pH values in the systems” value (System C: colonized samples immersed in rainwater, day 12) was 5.8. For the same molecule, the “pH values in the systems” value (System C: colonized samples immersed in rainwater, day 15) was 5.8, the “pH values in the systems” value (System C: colonized samples immersed in rainwater, day 21) was 5.8 and the “pH values in the systems” value (System C: colonized samples immersed in rainwater, day 29) was 5.8. For the same molecule, the “pH values in the systems” value (System C: colonized samples immersed in rainwater, day 32) was 5.8, the “pH values in the systems” value (System C: colonized samples immersed in rainwater, day 35) was 5.8 and the “pH values in the systems” value (System C: colonized samples immersed in rainwater, day 38) was 5.8. The “pH values in the systems” value (System C: colonized samples immersed in rainwater, day 42) was 5.8, the “pH values in the systems” value (System C: colonized samples immersed in rainwater, day 46) was 5.8 and the “pH values in the systems” value (System C: colonized samples immersed in rainwater, day 48) was 5.8.
